We go through 5 molecules from patent publication US20230127944A1, “BROAD-SPECTRUM CARBAPENEMS” (priority 2019, published 2023).

Usually MIC stands for the lowest concentration found to suppress growth.

Holding throughout (format): cell-based
The test system of test [1] is P. aeruginosa 35151 (hyper-permeable strain). Briefly: broth microdilution MIC assay, P. aeruginosa 35151. Conditions: Pseudomonas aeruginosa, read-out: MIC, P. aeruginosa 35151. The method, then:
(§1) To determine the ability of test compounds to inhibit the growth of bacterial strains, classic cell-based broth microdilution MIC assays were employed. MIC assays are performed according to CLSI methods except where otherwise noted (CLSI, 2011 and CLSI, 2009). The reference strains S. aureus ATCC 29213 (methicillin sensitive), S. aureus ATCC 33591 (methicillin-resistant), E. coli ATCC 25922 (wild-type/QC strain), P. aeruginosa ATCC 27853 (wild-type/QC strain), and the clinical isolate P. aeruginosa PA 8 were used to determine the ability of the exemplary carbapenem compounds to inhibit bacterial growth. An expanded panel of methicillin resistance S. aureus (MRSA) and Pseudomonas was also used to determine the ability of exemplary carbapenem compounds to inhibit bacterial growth across a broader representation of those species. To determine activity in MRSA and in addition to S. aureus ATCC 33591, S. aureus USA 300 and USA 600, some of the most common clones found to cause human infection, were also used. To further gauge the impact on the carbapenem compounds due to various resistance mechanisms in Pseudomonas, the following strains were included: P. aeruginosa 35151 (hyper-permeable strain), P. aeruginosa ΔmexAB-OprM (an efflux pump knockout), and P. aeruginosa Paβ-173 (a clinical isolate of reduced carbapenem susceptibility). Briefly, cryo-preserved bacterial cultures of clinical strains are streaked for isolation on appropriate agar medium, in this case Mueller Hinton II agar. Following incubation to allow formation of colonies, these plates are sealed with parafilm and stored refrigerated for up to two weeks. For preparation of assay inocula and to ensure low variability, at least 5 colonies are picked from the agar plates with an inoculating loop and aseptically transferred to a culture tube containing 3 mL of Mueller-Hinton Broth (supplemented with divalent cations to required levels based on Manufacturers' specification). The broth culture is grown for 3-5 hours at 37° C. with shaking at 200 rpm. Meanwhile, 2-fold serial dilutions of test compounds are conducted in a 96 well plate with a final volume of 75 μL per well at 2-fold the final desired concentration. After the dilution plates are set up the growing cultures are then diluted in a cuvette containing MH II broth and the optical density is measured at 600 nm. Inocula are diluted such that 75 μL of this culture in Mueller-Hinton Broth results in a starting bacterial concentration of 5×10^5 CFU/mL when added to the dilution plates. The plates are incubated 16-20 hours at 37° C. The MIC is read visually as the lowest concentration well with no bacterial growth.
(Dilution methods test growth across graded concentrations, often in twofold steps.)

Test [2] deals with E. coli ATCC 25922 (wild-type/QC strain). Briefly: broth microdilution MIC assay, E. coli 25922. Conditions: Escherichia coli, ATCC25922; read-out: MIC, E. coli 25922. The method, then:
as §1

For a further test, the system named is S. aureus USA 300. Briefly: broth microdilution MIC assay, S. aureus USA300. Conditions: Staphylococcus aureus; S. aureus USA300 (MRSA); read-out: MIC, S. aureus USA300. On the procedure:
as §1

Test [3] has as its system S. aureus ATCC 33591 (methicillin-resistant). Put plainly: broth microdilution MIC assay, S. aureus 33591. Conditions: Staphylococcus aureus, ATCC33591; S. aureus 33591, methicillin-resistant; read-out: MIC, S. aureus 33591. The method, then: as §1
In the next test the test system is S. aureus USA 600. Briefly: broth microdilution MIC assay, S. aureus USA600. The note with it: Staphylococcus aureus; S. aureus USA600 (MRSA); read-out: MIC, S. aureus USA600. The method, then: as §1
The subject of another test is P. aeruginosa Paeβ-17. Briefly: broth microdilution MIC assay, P. aeruginosa Paeβ-17. The note with it: Pseudomonas aeruginosa, read-out: MIC, P. aeruginosa Paeβ-17. On the procedure: as §1
In test [4] the test system is P. aeruginosa ΔmexAB-OprM (an efflux pump knockout). Put plainly: broth microdilution MIC assay, P. aeruginosa ΔmexAB-OprM. Conditions: Pseudomonas aeruginosa, read-out: MIC, P. aeruginosa ΔmexAB-OprM. The method, then:
as §1

In test [5] the test system is P. aeruginosa ATCC 27853 (wild-type/QC strain). Briefly: broth microdilution MIC assay, P. aeruginosa 27853. The note with it: Pseudomonas aeruginosa, ATCC27853; read-out: MIC, P. aeruginosa 27853. On the procedure: as §1

In brackets after ≈: the same amount, converted by molar mass.

Consider `C[C@@H](O)[C@H]1C(=O)N2C(C(=O)O)=C(S[C@@H]3CCN(C4CCN(C)CC4)C3)[C@H](C)[C@H]12` [Example 29, (4R,5S,6S)-6-((R)-1-hydroxyethyl)-4-methyl-3-(((R)-1-(1-methylpiperidin-4-yl)pyrrolidin-3-yl)thio)-7-oxo-1-azabicyclo[3.2.0]hept-2-ene-2-carboxylic acid], for which the minimal inhibitory concentration (MIC) is less than 1 µg/mL in test [1]; less than 1 µg/mL in test [2]; 1 to 4 µg/mL (≈ 2.44 to 9.77 µM) in the test with S. aureus USA 300; 8 to 32 µg/mL (≈ 19.5 to 78.1 µM) in test [3]; 1 to 4 µg/mL (≈ 2.44 to 9.77 µM) with S. aureus USA 600; 8 to 32 µg/mL (≈ 19.5 to 78.1 µM) in the test on P. aeruginosa Paeβ-17. The MIC fell in the range of 1 to 4 µg/mL (≈ 2.44 to 9.77 µM) in test [4] and 8 to 32 µg/mL (≈ 19.5 to 78.1 µM) in test [5].
For `C[C@@H](O)[C@H]1C(=O)N2C(C(=O)O)=C(S[C@@H]3CCN([C@@H]4CC[C@@H](NC(=N)N)C4)C3)[C@H](C)[C@H]12` [Example 30, (4R,5S,6S)-3-(((R)-1-((1R,3R)-3-guanidinocyclopentyl)pyrrolidin-3-yl)thio)-6-((R)-1-hydroxyethyl)-4-methyl-7-oxo-1-azabicyclo[3.2.0]hept-2-ene-2-carboxylic acid], the MIC in test [1] is 1 to 4 µg/mL (≈ 2.29 to 9.14 µM); in test [2] it was less than 1 µg/mL; with S. aureus USA 300, 1 to 4 µg/mL (≈ 2.29 to 9.14 µM); in test [3] it was 8 to 32 µg/mL (≈ 18.3 to 73.1 µM); with S. aureus USA 600 it was 1 to 4 µg/mL (≈ 2.29 to 9.14 µM); in the test on P. aeruginosa Paeβ-17, greater than 32 µg/mL. Besides, the MIC in test [4] lay in the range of 1 to 4 µg/mL (≈ 2.29 to 9.14 µM); in test [5], 8 to 32 µg/mL (≈ 18.3 to 73.1 µM).
`C[C@@H](O)[C@H]1C(=O)N2C(C(=O)O)=C(S[C@@H]3CCN([C@H]4CC[C@@H](NC(=N)N)C4)C3)[C@H](C)[C@H]12` [Example 31, (4R,5S,6S)-3-(((R)-1-((1S,3R)-3-guanidinocyclopentyl)pyrrolidin-3-yl)thio)-6-((R)-1-hydroxyethyl)-4-methyl-7-oxo-1-azabicyclo[3.2.0]hept-2-ene-2-carboxylic acid]: the MIC was less than 1 µg/mL in test [1]; less than 1 µg/mL in test [2]; less than 1 µg/mL in the test with S. aureus USA 300; 1 to 4 µg/mL (≈ 2.29 to 9.14 µM) in test [3]; 1 to 4 µg/mL (≈ 2.29 to 9.14 µM) in the test with S. aureus USA 600; 8 to 32 µg/mL (≈ 18.3 to 73.1 µM) with P. aeruginosa Paeβ-17. Moreover, the figures for the MIC in test [4] and in test [5] were less than 1 µg/mL and 1 to 4 µg/mL (≈ 2.29 to 9.14 µM), respectively.
For the molecule `C[C@@H](O)[C@H]1C(=O)N2C(C(=O)O)=C(SC3CN(C[C@H]4CCCN4)C3)[C@H](C)[C@H]12` [Example 32, (4R,5S,6S)-6-((R)-1-hydroxyethyl)-4-methyl-7-oxo-3-((1-(((R)-pyrrolidin-2-yl)methyl)azetidin-3-yl)thio)-1-azabicyclo[3.2.0]hept-2-ene-2-carboxylic acid], the MIC in test [1] was less than 1 µg/mL; in test [2], less than 1 µg/mL; in the test with S. aureus USA 300, 1 to 4 µg/mL (≈ 2.62 to 10.5 µM); in test [3], 8 to 32 µg/mL (≈ 21 to 83.9 µM); in the test on S. aureus USA 600, 1 to 4 µg/mL (≈ 2.62 to 10.5 µM); with P. aeruginosa Paeβ-17 it was 8 to 32 µg/mL (≈ 21 to 83.9 µM). Moreover, the MIC is 1 to 4 µg/mL (≈ 2.62 to 10.5 µM) in test [4] and 8 to 32 µg/mL (≈ 21 to 83.9 µM) in test [5].
On to `C[C@@H](O)[C@H]1C(=O)N2C(C(=O)O)=C(S[C@@H]3CCN(C[C@H]4CC[C@@H](NC(=N)N)CC4)C3)[C@H](C)[C@H]12` [Example 33, (4R,5S,6S)-3-(((R)-1-(((1S,4S)-4-guanidinocyclohexyl)methyl)pyrrolidin-3-yl)thio)-6-((R)-1-hydroxyethyl)-4-methyl-7-oxo-1-azabicyclo[3.2.0]hept-2-ene-2-carboxylic acid], for which the MIC is less than 1 µg/mL in test [1]; less than 1 µg/mL in test [2]; less than 1 µg/mL with S. aureus USA 300; 1 to 4 µg/mL (≈ 2.15 to 8.59 µM) in test [3]; 1 to 4 µg/mL (≈ 2.15 to 8.59 µM) in the test on S. aureus USA 600; 8 to 32 µg/mL (≈ 17.2 to 68.7 µM) with P. aeruginosa Paeβ-17. In addition, the MIC in test [4] and in test [5] was 1 to 4 µg/mL (≈ 2.15 to 8.59 µM) each time.
